Laboratory results reported in patent publication US9096598B2 (Merck Sharp & Dohme Corp., priority 2011, dated 2015).
pIC50: −log10 of the molar value.

Key:
JAK3 = molecular target: T1, JAK3 (Homo sapiens, UniProt P52333); assay: Jak Biochemical HTRF Assay (JAK3); conditions: recombinant purified GST-tagged catalytic domain, [ATP] 2.9 μM, values given as range classes
T1 construct: recombinant purified GST-tagged catalytic domain for each enzyme; purchased Invitrogen M4290
Method in brief: (§1)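 GST-tagged recombinant catalytic domain and biotinylated peptide substrate were preincubated with compound for 30 min at room temperature in kinase buffer with 2 mM DTT and 0.05% BSA. ATP then started a 120 min reaction. Phosphopeptide was detected by HTRF (Eu-pY20/streptavidin-Dylight 650, 665/615 nm ratio), and IC50 came from a 4-parameter fit of percent inhibition.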

JAK2 = molecular target: T2, JAK2 (Homo sapiens, UniProt O60674); assay: Jak Biochemical HTRF Assay (JAK2); conditions: recombinant purified GST-tagged catalytic domain, [ATP] 8.5 μM, values given as range classes
T2 construct: recombinant purified GST-tagged catalytic domain for each enzyme; purchased Invitrogen M4290
Method in brief: as §1

T1 sequence (P52333 822-1111 limits assumed): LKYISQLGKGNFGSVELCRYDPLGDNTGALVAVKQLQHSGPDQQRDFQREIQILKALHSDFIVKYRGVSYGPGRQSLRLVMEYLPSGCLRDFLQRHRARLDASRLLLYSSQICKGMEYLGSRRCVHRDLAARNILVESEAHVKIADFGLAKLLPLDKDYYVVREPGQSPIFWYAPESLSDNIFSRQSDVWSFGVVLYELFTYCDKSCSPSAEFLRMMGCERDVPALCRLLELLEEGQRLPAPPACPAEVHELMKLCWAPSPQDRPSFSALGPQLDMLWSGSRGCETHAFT
T2 sequence (O60674 849-1124 limits assumed): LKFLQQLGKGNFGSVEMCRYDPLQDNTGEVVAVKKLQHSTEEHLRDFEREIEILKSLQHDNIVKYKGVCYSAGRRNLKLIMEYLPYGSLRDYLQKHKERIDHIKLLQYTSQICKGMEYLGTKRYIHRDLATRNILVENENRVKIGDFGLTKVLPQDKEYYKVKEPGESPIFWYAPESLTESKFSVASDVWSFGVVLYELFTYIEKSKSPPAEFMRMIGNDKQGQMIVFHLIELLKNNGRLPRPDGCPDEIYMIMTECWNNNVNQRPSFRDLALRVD

pIC50 (JAK3) | pIC50 (JAK2) | SMILES
≥ 8.00 | 6.30 to 8.00 | COc1cnc2[nH]cc(-c3cncc(N[C@@H](C(=O)NCC(F)(F)F)C(C)(C)O)c3)c2c1 [Example 1-50, 3-hydroxy-N~2~-[5-(5-methoxy-1H-pyrrolo[2,3-b]pyridin-3-yl)pyridin-3-yl]-N-(2,2,2-trifluoroethyl)-D-valinamide]
≥ 8.00 | 6.30 to 8.00 | CC(C)[C@@H](Nc1cnnc(-c2c[nH]c3ncc(C(N)=O)cc23)n1)C(=O)NCC(F)(F)F [Example 1-18, 3-[5-({(1R)-2-methyl-1-[(2,2,2-trifluoroethyl)carbamoyl]propyl}amino)-1,2,4-triazin-3-yl]-1H-pyrrolo[2,3-b]pyridine-5-carboxamide]
6.30 to 8.00 | < 6.30 | CC(C)[C@H](Nc1cncc(-c2c[nH]c3ncc(NS(C)(=O)=O)cc23)c1)C(=O)NCC(F)(F)F [Example 5-4, N^2-(5-{5-[(methylsulfonyl)amino]-1H-pyrrolo[2,3-b]pyridin-3-yl}pyridin-3-yl)-N-(2,2,2-trifluoroethyl)-L-valinamide]
≥ 8.00 | 6.30 to 8.00 | CC(C)C(Nc1cncc(-c2c[nH]c3ncc(O)cc23)c1)C(=O)NCC(F)(F)F (centres unmarked) [Example 2-1, 2-{[5-(5-hydroxy-1H-pyrrolo[2,3-b]pyridin-3-yl)pyridin-3-yl]amino}-3-methyl-N-(2,2,2-trifluoroethyl)butanamide]
≥ 8.00 | 6.30 to 8.00 | C=CCOCc1cnc2[nH]cc(-c3cncc(N[C@@H](C(=O)NCC(F)(F)F)C(C)C)c3)c2c1 [Example 9-5, N~2~-(5-{5-[(prop-2-en-1-yloxy)methyl]-1H-pyrrolo[2,3-b]pyridin-3-yl}pyridin-3-yl)-N-(2,2,2-trifluoroethyl)-D-valinamide]
≥ 8.00 | 6.30 to 8.00 | COc1cnc2[nH]cc(-c3nncc(N[C@@H](C(=O)NCC(F)(F)F)C(C)C)n3)c2c1 [Example 1-20, N~2~-[3-(5-methoxy-1H-pyrrolo[2,3-b]pylidin-3-yl)-1,2,4-triazin-5-yl]-N-(2,2,2-trifluoroethyl)-D-valinamide]
≥ 8.00 | 6.30 to 8.00 | C[C@H](Nc1cc(-c2c[nH]c3ncc(Cl)cc23)cnc1F)C(=O)NCC(F)(F)F [Example 1-39, N~2~-[5-(5-chloro-1H-pyrrolo[2,3-b]pyridin-3-yl)-2-fluoropyridin-3-yl]-N-(2,2,2-trifluoroethyl)alaninamide]
≥ 8.00 | ≥ 8.00 | NC(=O)c1cnc2[nH]cc(-c3cncc(N[C@@H]4CCCC[C@@H]4C(=O)NCC(F)(F)F)c3)c2c1 [Example 1-40, 3-[5-({(1R,2S)-2-[(2,2,2-trifluoroethyl)carbamoyl]cyclo-hexyl}amino)pyridin-3-yl]-1H-pyrrolo[2,3-b]pyridine-5-carboxamide]
≥ 8.00 | 6.30 to 8.00 | CC(C)[C@H](Nc1cncc(-c2c[nH]c3ncc(OC4Cc5ccccc5C4)cc23)c1)C(=O)NCC(F)(F)F [Example 2-8, N~2~-{5-[5-(2,3-dihydro-1H-inden-2-yloxy)-1H-pyrrolo[2,3-b]pyridin-3-yl]pyridin-3-yl}-N-(2,2,2-trifluoroethyl)valinamide]
6.30 to 8.00 | 6.30 to 8.00 | CC1c2ncc(C(F)(F)F)n2CCN1c1cnnc(-c2c[nH]c3ncc(F)cc23)n1 (centres unmarked) [Example 1-10, 7-[3-(5-fluoro-1H-pyrrolo[2,3-b]pyridin-3-yl)-1,2,4-triazin-5-yl]-8-methyl-3-(trifluoromethyl)-5,6,7,8-tetrahydroimidazo[1,2-a]pyrazine]
6.30 to 8.00 | < 6.30 | CC(C)[C@H](Nc1cncc(-c2c[nH]c3ncc(CNC(=O)CC(F)(F)F)cc23)c1)C(=O)NCC(F)(F)F [Example 10-10, N-(2,2,2-trifluoroethyl)-N~2~-[5-(5-{[(3,3,3-trifluoropropanoyl)amino]methyl}-1H-pyrrolo[2,3-b]pyridin-3-yl)pyridin-3-yl]valinamide]
≥ 8.00 | 6.30 to 8.00 | COCC(=O)Nc1cnc2[nH]cc(-c3cncc(N[C@H](C(=O)NCC(F)(F)F)C(C)C)c3)c2c1 [Example 5-8, N~2~-(5-{5-[(methoxyacetyl)amino]-1H-pyrrolo[2,3-b]pyridin-3-yl}pyridin-3-yl)-N-(2,2,2-trifluoroethyl)valinamide]
≥ 8.00 | 6.30 to 8.00 | CC(C)(Nc1cnnc(-c2c[nH]c3ncc(C#N)cc23)n1)C(=O)NCC(F)(F)F [Example 1-7, N~2~-[3-(5-cyano-1H-pyrrolo[2,3-b]pyridin-3-yl)-1,2,4-triazin-5-yl]-2-methyl-N-(2,2,2-trifluoroethyl)alaninamide]
6.30 to 8.00 | < 6.30 | CC(C)[C@@H](Nc1cncc(-c2c[nH]c3ncc(C(=O)N(C)C)cc23)c1)C(=O)NCC(F)(F)F [Example 3-1, (R)—N,N-dimethyl-3-(5-(3-methyl-1-oxo-1-(2,2,2-trifluoroethylamino)butan-2-ylamino)pyridin-3-yl)-1H-pyrrolo[2,3-b]pyridine-5-carboxamide]
≥ 8.00 | ≥ 8.00 | CC(C)[C@@H](Nc1cncc(-c2c[nH]c3ncc(-c4cnn(C)c4)cc23)c1)C(=O)NCC(F)(F)F [Example 8-3, N^2-{5-[5-(1-methyl-1H-pyrazol-4-yl)-1H-pyrrolo[2,3-b]pyridin-3-yl]pyridin-3-yl}-N-(2,2,2-trifluoroethyl)-D-valinamide]
6.30 to 8.00 | 6.30 to 8.00 | CC(C)OC(=O)Nc1cnc2[nH]cc(-c3cncc(NC(C(=O)NCC(F)(F)F)C(C)C)c3)c2c1 (centres unmarked) [Example 7-3, 1-methylethyl {3-[5-({2-methyl-1-[(2,2,2-trifluoroethyl)carbamoyl]propyl}amino)pyridin-3-yl]-1H-pyrrolo[2,3-b]pyridin-5-yl}carbamate]
≥ 8.00 | 6.30 to 8.00 | CC(C)[C@@H](Nc1cncc(-c2c[nH]c3ncc(Cl)cc23)c1)C(=O)NCC(F)(F)F (single isomer, unassigned) [Example 1-1]
≥ 8.00 | 6.30 to 8.00 | COCCOc1cnc2[nH]cc(-c3cncc(NC(C(=O)NCC(F)(F)F)C(C)C)c3)c2c1 (centres unmarked) [Example 2-2]
≥ 8.00 | 6.30 to 8.00 | CC(C)C(Nc1cncc(-c2c[nH]c3ncc(C(N)=O)cc23)c1)C(=O)NCC(F)(F)F (centres unmarked) [Example 1-42, 3-[5-({2-methyl-1-[(2,2,2-trifluoroethyl)carbamoyl]propyl}amino)pridin-3-yl]-1H-pyrrolo[2,3-b]pyridine-5-carboxamide]
≥ 8.00 | 6.30 to 8.00 | CC(C)[C@H](Nc1cncc(-c2c[nH]c3ncc(OC4CCCC4)cc23)c1)C(=O)NCC(F)(F)F [Example 2-5, N~2~-{5-[5-(cyclopentyloxy)-1H-pyrrolo[2,3-b]pyridin-3-yl]pyridin-3-yl}-N-(2,2,2-trifluoroethyl)valinamide]
≥ 8.00 | 6.30 to 8.00 | CC(C)[C@@H](Nc1cncc(-c2c[nH]c3ncc(C(=O)N4CCC4)cc23)c1)C(=O)NCC(F)(F)F [Example 3-6, N~2~-{5-[5-(azetidin-1-ylcarbonyl)-1H-pyrrolo[2,3-b]pyridin-3-yl]pyridin-3-yl}-N-(2,2,2-trifluoroethyl)-D-valinamide]
≥ 8.00 | 6.30 to 8.00 | CC(C)CNC(=O)c1cnc2[nH]cc(-c3cncc(N[C@@H](C(=O)NCC(F)(F)F)C(C)C)c3)c2c1 [Example 3-7, N-(2-methylpropyl)-3-[5-({(1R)-2-methyl-1-[(2,2,2-trifluoroethyl)carbamoyl]propyl}amino)pyridin-3-yl]-1H-pyrrolo[2,3-b]pyridine-5-carboxamide]
≥ 8.00 | 6.30 to 8.00 | CC(C)[C@@H](Nc1cnnc(-c2c[nH]c3ncc(F)cc23)n1)C(=O)NCC(F)(F)F [Example 1-16, N~2~-[3-(5-fluoro-1H-pyrrolo[2,3-b]pyridin-3-yl)-1,2,4-triazin-5-yl]-N-(2,2,2-trifluoroethyl)-D-valinamide]
≥ 8.00 | 6.30 to 8.00 | CC(C)[C@H](Nc1cncc(-c2c[nH]c3ncc(OCc4cccnc4)cc23)c1)C(=O)NCC(F)(F)F [Example 2-11, N~2~-{5-[5-(pyridin-3-ylmethoxy)-1H-pyrrolo[2,3-b]pyridin-3-yl]pyridin-3-yl}-N-(2,2,2-trifluoroethyl)valinamide]
≥ 8.00 | 6.30 to 8.00 | O=C(NCC(F)(F)F)[C@H]1CCCC[C@H]1Nc1cncc(-c2c[nH]c3ncc(F)cc23)c1 [Example 1-37, (1S,2R)-2-{[5-(5-fluoro-1H-pyrrolo[2,3-b]pyridin-3-yl)pyridin-3-yl]amino}-N-(2,2,2-trifluoroethyl)cyclohexane-carboxamide]
